According to US6727240B1, “Methods for preventing HIV-1 or HIV-2 infection” (New York Blood Center, Inc., priority 1993, dated 2004):

What was measured:
[1] = tested on: HIV-1
Experimental: They were tested for antiviral activity at serial two-fold dilutions (0.16-80 μg/ml^−1). Their inhibitory activity was determined based on inhibition of synthesis of the HIV-1 core protein p24 and on protection by the compounds of cells against the cytopathic effect of HIV-1. The cytotoxic effect of all compounds in the absence of HIV-1 was also determined.
The antiviral activity of the compounds was tested against HIV-1 IIIB, MN, RF and SF-2, as well as against azidothymidine (AZT) resistant variants V32 (Nara, P. L., Smit, L., Dunlop, N., Hatch, W., Merges, M., Waters, D. Kelliher, J., Gallo, R. C., Fischinger, P. J. & Goudsmit, J. (1990), “Emergence of Viruses Resistant to Neutralization by V3-specific Antibodies in Experimental Human Immunodeficiency Virus Type 1 IIIB Infection of Chimpanzees, J. Virol., 64, 3779-3791) and AZT-R (see FIG. 1B).
All chemicals were tested at serial two-fold dilutions (1.25-80 μgml^−1, prepared from a stock solution containing 10 mgml^−1 in dimethylsulphoxide). […] Their inhibitory activity was determined by two distinct methods, based on inhibition of synthesis of core protein p24 and on protection by the chemicals of cells against the cytophathic effect of HIV-1 (colorimetric method), respectively.
The chemicals were serially diluted in RPMl-1640 medium without phenol red (Gibco, Grand Island, N.Y.) containing 10% fetal calf serum (FCS). Aliquots of the diluted solutions were added to wells of 96-well plates and mixed with an equal volume of diluted HIV-1 [multiplicity of infection (MOl)=0.0045]. After incubation for 1 hour at 37° C., 25 μl of polybrene (1 μgml^−1)-treated MT-2 cells (Harada et al., (1985), “Infection of HTLV-III/LAV in HTLV-1-Carrying Cells MT-2 and MT-4 and Application in Plaque Assay”, Science, 229, 563-566) (5000 cells/well) were added. The mixture was incubated for 1 hour at 37° C. and the volume was adjusted with RPMl-1640 medium with 10% FCS to 200 μl. On the fourth and sixth day after incubation at 37° C., 100 μl of culture supernatants were collected from each well and equal volumes of fresh medium were added to the wells. The supernatants were collected from each well and equal volumes of fresh medium were added to the wells. The supernatants were assayed for p24 using a kit from Coulter Immunology (Hialeah, Fla.). On the sixth day, an indicator, XTT tetrazolium dye (1 mg/ml:50 μl/well; PolySciences, Inc., Warrington, Pa.) was added to the cells. After 4 hours intracellular formazan was determined colorimetrically at 450 nm.

[2] = versus Sn-PTP-IX; cited from earlier work
[3] = tested on: MT-2 cells; test: Cytotoxic effect in the absence of HIV-1 (lysis of uninfected cells); format: cell-based
[4] = tested on: V3 hypervariable loop peptides from gp120 from 21 distinct HIV-1 isolates; test: ELISA: reaction of V3 hypervariable loop peptides with homologous anti-peptide antisera; format: binding; conditions: rabbit antisera diluted 1:1,000; FIG. 2
Experimental: (§1) The inhibitory effect of PTP-IX and its metal derivatives on binding to gp120 of monoclonal antibodies (mAbs) specific for the V3 loop or for the CD4 binding site was measured by ELISA tests using as second antibodies horseradish peroxidase (HRP) labeled anti-mouse IgG.
Sn-PTP-IX was also tested for inhibition of the reaction between V3 hypervariable loop peptides from 21 distinct HIV-1 isolates and the corresponding homologous antipeptide antibodies. […] With respect of FIG. 2, peptide coated wells of polystyrene plates were reacted in the presence and absence of the porphyrin derivative with the respective rabbit antisera diluted 1:1,000, and the attachment of rabbit IgG was subsequently determined using horseradish peroxidase labeled anti-rabbit IgG.
(§2) The inhibitory effect of PTP-IX and its metal complexes on the reaction between antibodies of distinct specificities and gp120 (or synthetic peptides derived from it) was calculated by the following formula: [formula]

[5] = biological target: T1, CD4 binding site of gp120 (recombinant gp120) (Human immunodeficiency virus type 1 group M subtype B, UniProt P03375); test: ELISA: binding of mAb 588D to gp120-coated wells; parameters: species or system HIV-1; conditions: mAb 588D 200 ng/well; FIG. 3
T1 construct: recombinant gp120 produced insect cells infected with a baculovirus vector; host or cells: insect cells infected with a baculovirus vector
Experimental: as §1
The inhibitory effect of Sn-PTP-IX on the reaction between gp120 and mAb specific for the CD4 binding site on gp120 was also investigated. For this purpose, mAb 588D (obtained from the AIDS Research and Reagent Reference Program and from Dr. S. Zolla-Pazner of New York Veterans Affairs Medical Center) was used.
as §2

[6] = tested on: deletion mutant of gp120 lacking the V3 loop sequence; test: Binding of CD4-binding-site mAbs to gp120 deletion mutant; parameters: species or system HIV-1

Compound | S.I. = selectivity index = CD50/ED50 (toxicity/activity) [1] | CD50 = concentration at which 50% of uninfected cells were lysed [3] [µg/mL] | further results
C=CC1=C(C)c2cc3[nH]c(cc4nc(cc5[nH]c(cc1n2)c(C)c5CCC(=O)O)C(CCC(=O)O)=C4C)c(C)c3C=C [Protoporphyrin IX] | 7.3 | – | –
C=CC1=C(C)c2cc3[n-]c(cc4[n-]c(cc5nc(cc1n2)C(C)=C5C=C)c(C)c4CCC(=O)O)c(CCC(=O)O)c3C.[Zn+2] [Zn-Protoporphyrin IX] | >3.1 | – | ED50 values relative to Sn-PTP-IX (times higher) [2]: approximately 50 times
tin mesoporphyrin IX [Sn-Mesoporphyrin IX] | >5.6 | >20 | –
C=Cc1c2[n-]c(c1C)/C=c1\[n-]/c(c(C)c1C=C)=C\c1[n-]c(c(CCC(=O)O)c1C)C=c1[n-]/c(c(C)c1CCC(=O)O)=C\2.[Sn+4] [Sn-Protoporphyrin IX, tin protoporphyrin IX] | 33.5 | 18.0 | Inhibition of the reaction between V3 loop peptides and homologous antibodies [4]: inhibited; Inhibition of binding of mAb 588D to gp120 [5]: blocked in a concentration dependent manner; Inhibition of binding of CD4-binding-site mAbs to gp120 lacking the V3 loop [6]: not observed; Inhibition of HIV-1 infection (in words) ([1]; compared with metal-free PTP-IX): effectively inhibited HIV-1 infection at considerably lower concentrations than did metal-free PTP-IX
C=Cc1c(C)c2cc3[nH]c(cc4nc(cc5nc(cc1[nH]2)C(C)=C5CCC(=O)[O-])C(CCC(=O)[O-])=C4C)c(C)c3C=C.[Co+2] [Co-Protoporphyrin IX] | >6.2 | – | –
C=CC1=C(C)c2cc3[n-]c(cc4[n-]c(cc5nc(cc1n2)C(C)=C5C=C)c(C)c4CCC(=O)O)c(CCC(=O)O)c3C.[Mn+2] [Mn-Protoporphyrin IX] | >2.8 | >80 | –
